The values below are quoted from earlier work in US20210220357A1, “1,3-THIAZOL-2-YL SUBSTITUTED BENZAMIDES FOR THE TREATMENT OF DISEASES ASSOCIATED WITH NERVE FIBER SENSITIZATION” (Bayer Aktiengesellschaft, priority 2018, published 2021).

This data set relates to treated subjects. The note with it: Clinical Phase II trials, taste sensation via the tongue.

`COc1cc(C(C)C)c(Oc2cnc(N)nc2N)cc1S(N)(=O)=O` [AF-219, 5-(2,4-diamino-pyrimidin-5-yloxy)-4-isopropyl-2-methoxy-benzenesulfonamide]: the taste disturbances entry is reported as “taste disturbances”.
